Source: BindingDB's records for doi:10.1016/s0960-894x(01)00594-7 (The University of Newcastle, 2001)

Target: Protein phosphatase 1 catalytic subunit (PPP1CA)
Test: Inhibitory concentration against protein phosphatase 1 (PP1) was determined

| Compound | IC50 [µM] |
| --- | --- |
| O=C(O)[C@@H](Cc1ccccc1)N1C(=O)[C@@H]2[C@H](C1=O)[C@H]1CC[C@@H]2O1 [(R)-2-((1S,2R,6S,7R)-3,5-Dioxo-10-oxa-4-aza-tricyclo[5.2.1.0*2,6*]dec-4-yl)-3-phenyl-propionic acid] | > 1000 |
| CC(C)C[C@H](C(=O)O)N1C(=O)[C@@H]2[C@H](C1=O)[C@H]1CC[C@@H]2O1 [(R)-2-((1S,2R,6S,7R)-3,5-Dioxo-10-oxa-4-aza-tricyclo[5.2.1.0*2,6*]dec-4-yl)-4-methyl-pentanoic acid] | > 1000 |
| CC(C)C[C@@H](C(=O)O)N1C(=O)[C@@H]2[C@H](C1=O)[C@H]1CC[C@@H]2O1 [(S)-2-((1S,2R,6S,7R)-3,5-Dioxo-10-oxa-4-aza-tricyclo[5.2.1.0*2,6*]dec-4-yl)-4-methyl-pentanoic acid] | > 1000 |

The remaining lines, values ahead:

| IC50 [µM] | Compound |
| --- | --- |
| 95 | O=C(O)CC[C@H](C(=O)O)N1C(=O)[C@@H]2[C@H](C1=O)[C@H]1CC[C@@H]2O1 [(R)-2-((1S,2R,6S,7R)-3,5-Dioxo-10-oxa-4-aza-tricyclo[5.2.1.0*2,6*]dec-4-yl)-pentanedioic acid] |
| > 1000 | O=C(O)[C@H](Cc1ccccc1)N1C(=O)[C@@H]2[C@H](C1=O)[C@H]1CC[C@@H]2O1 [(S)-2-((1S,2R,6S,7R)-3,5-Dioxo-10-oxa-4-aza-tricyclo[5.2.1.0*2,6*]dec-4-yl)-3-phenyl-propionic acid] |
